Experimental data published in publication PMC9105102, “Development and Biochemical Characterization of Self-Immolative Linker Containing GnRH-III-Drug Conjugates” (International Journal of Molecular Sciences, 2022).
Where two headings read alike, the source gives them in different places.

Tests used:
[1] = test system: A2780 human ovarian cancer cells; experiment: cells; assay type: cell-based
Experimental: (§1) For cultivation of A2780 human ovarian and Panc-1 human pancreatic cancer cells, RPMI-1640 medium with 10% FBS, L-glutamine and 1% Penicillin-Streptomycin were used. Cells were cultured in appropriate plastic flasks at 37 °C (humidified atmosphere, 5% CO2/95% air).
(§2) A set-up of 96-well plates was used to study the in vitro antiproliferative activity. Therefore, 5 × 10^3 cells in 100 µL complete medium were seeded to each well. After 24 h, complete medium was removed and cells were treated with 200 µL bioconjugate solution in serum-free medium (concentration range 0.0032–50 µM, control wells were treated with serum-free medium). Medium was taken out after 6 h treatment (PTX conjugates) or 24 h (Dau conjugates), replaced by complete medium and incubation was continued. To determine the cell viability, medium was removed after 72 h and 100 µL resazurin solution [45] (10% Tox-8 in FBS-free medium) was added to each well, followed by additional incubation of 2–3 h. A Tecan infinite 200 pro microplate reader (Tecan Group Ltd., Zürich, Switzerland) was used for fluorescence detection (λEx = 560 and λEm = 590 nm). Experiments were performed at least twice, using three parallels per concentration. The cell viability (and IC50 values) was calculated with GraphPad Prism using a nonlinear regression (sigmoidal dose-response).

[2] = test system: Panc-1 human pancreatic cancer cells; experiment: cells; assay type: cell-based; conditions: for activity on Panc-1 cells lower than on A2780: ratio Panc-1 vs A2780
Experimental: as §1, §2

[3] = target: T1, GnRH-R (membranes of human prostate cancer specimens) (Homo sapiens, UniProt P30968); experiment: Radioligand competition assay, displacement of [125I]-GnRH-I-[6D-Trp] (triptorelin), human prostate cancer membranes; conditions: mean ± SE of two to three determinations, read-out: IC50 Prostate Cancer, competitive inhibition of [125I][6D-Trp]-GnRH-I binding
T1 construct: GnRH-Rs expressed on human pituitary and human prostate cancer cells; from tissue; host or cells: human prostate cancer specimens from patients (surgery); membrane homogenate
T1 sequence (P30968 1-328): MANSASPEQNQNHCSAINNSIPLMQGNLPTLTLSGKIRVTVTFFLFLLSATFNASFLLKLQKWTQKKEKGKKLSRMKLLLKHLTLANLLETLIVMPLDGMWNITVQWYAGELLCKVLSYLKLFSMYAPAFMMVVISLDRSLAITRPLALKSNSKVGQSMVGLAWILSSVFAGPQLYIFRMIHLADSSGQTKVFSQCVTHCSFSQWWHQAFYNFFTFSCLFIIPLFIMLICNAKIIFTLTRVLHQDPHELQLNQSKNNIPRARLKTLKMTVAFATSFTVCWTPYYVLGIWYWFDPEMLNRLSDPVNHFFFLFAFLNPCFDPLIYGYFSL
Experimental: (§3) A ligand competition assay with [^125I]-GnRH-I-[^6D-Trp] as radioligand was performed to examine the binding affinity of the GnRH-III-drug conjugates to GnRH-Rs expressed on human pituitary and human prostate cancer cells. Human prostate cancer cells were derived from patients at the time of initial surgical treatment, while tissue samples from normal human pituitary (anterior lobe) were obtained by autopsy. All subjects were informed and gave their consent for inclusion before they participated in the study. The preparation of the cell membranes was carried out according to the literature. The chloramines-T method was used to prepare radioiodinated GnRH-I agonist triptorelin which was purified by RP-HPLC [10, 38, 39, 47]. The displacement of [^125I]-GnRH-I-[^6D-Trp] was studied in an in vitro ligand competition assay to determine the binding affinities of the non-radio-labeled GnRH-III bioconjugates to GnRH-RI [10, 11, 38, 39]. Membrane homogenates containing […] protein were incubated in duplicate or triplicate with 60–80,000 cpm [^125I]-GnRH-I-[^6D-Trp] and rising concentration (1 pM—1 µM) of nonradioactive bioconjugates as competitors in a total volume of […] binding buffer. Protein concentration was determined by the method of Bradford using a Bio-Rad protein assay kit (Bio-Rad Laboratories, Hercules, CA, USA). The LIGAND-PC computerized curve-fitting program of Munson and Rodbard was used to determine the receptor binding characteristics and IC50 values.

[4] = target: T2, GnRH-R (membranes of human pituitary) (Homo sapiens, UniProt P30968); experiment: Radioligand competition assay, displacement of [125I]-GnRH-I-[6D-Trp] (triptorelin), human pituitary membranes; assay type: binding; conditions: for GnRH-R binding of the radiotracer affected: at concentrations up to 1 µM, unrelated peptides; for displacement of radio-labelled triptorelin from GnRH-Rs: human pituitary and human prostate cancer tissues, GnRH unrelated peptides
T2 construct: GnRH-Rs expressed on human pituitary and human prostate cancer cells; from tissue; host or cells: normal human pituitary (anterior lobe), autopsy; membrane homogenate
T2 sequence (P30968 1-328): T1 sequence (P30968 1-328)
Experimental: as §3

[5] = Degradation of drug conjugates in presence of rat liver lysosomal homogenate (LC-MS); assay type: in vitro ADME; conditions: pH 5, 37 °C; for release of the free PTX: within 24 h
Experimental: The preparation of the rat liver lysosomal homogenate was carried out as recently reported. A Qubit Protein Assay Kit (Thermo Fischer Scientific, Waltham, MA, USA) was used to examine the concentration of the lysosomal proteins.
Initially, a stock solution of the GnRH-III-Dau conjugates in water (5 µg/µL) was prepared. For the degradation reaction, the conjugates and the lysosomal homogenate were diluted together in 0.2 M NaOAc buffer (pH 5) to a concentration of 0.25 µg/µL each. These mixtures were kept at 37 °C and at distinct time points (5 min, 1 h, 2 h, 4 h, 8 h and 24 h), 15 µL of each sample were quenched with 2 µL acetic acid and analyzed by LC-MS (System I).
The GnRH-III-PTX conjugates were dissolved in DMSO to a concentration of 10 mM. The reaction was carried out in 0.2 M NaOAc buffer (pH 5) with 10 µM conjugate and 0.025 µg/mL lysosomal homogenate. The reaction mixtures were incubated at 37 °C and aliquots of 60 μL were taken at 5 min, 1 h, 2 h, 4 h, 8 h and 24 h and quenched with 5 μL of acetic acid. The analysis of the samples was performed by LC–MS (System-II).

[6] = A2780 cells, treatment 24 h (Dau conjugates) or 6 h (PTX compounds), viability at 72 h, mean ± SE of two to three determinations, read-out: A2780 IC50
[7] = Panc-1 cells, treatment 24 h (Dau conjugates) or 6 h (PTX compounds), viability at 72 h, mean ± SE of two to three determinations, read-out: Panc-1 IC50

COc1cccc2c1C(=O)c1c(O)c3c(c(O)c1C2=O)C[C@@](O)(C(C)=O)C[C@@H]3O[C@H]1C[C@H](N)[C@H](O)[C@H](C)O1 [Dau, daunorubicin, reference compound]
IC50 ([1]; Homo sapiens, A2780, read-out: A2780 IC50): 210 ± 10 nM | IC50 ([2]; Homo sapiens, PANC-1, read-out: Panc-1 IC50): 2430 ± 580 nM | activity on Panc-1 cells lower than on A2780 [2]: approximately 10 times

CC(=O)O[C@H]1C(=O)[C@@]2(C)[C@H]([C@H](OC(=O)c3ccccc3)[C@]3(O)C[C@H](OC(=O)[C@H](O)[C@@H](NC(=O)c4ccccc4)c4ccccc4)C(C)=C1C3(C)C)[C@]1(OC(C)=O)CO[C@@H]1C[C@@H]2O [PTX, paclitaxel, reference compound]
IC50 ([1]; Homo sapiens, A2780 cells, treatment 24 h (Dau conjugates) or 6 h (PTX compounds), viability at 72 h, mean ± SE of two to three determinations, read-out: A2780 IC50): 20 ± 1 nM | IC50 ([2]; Homo sapiens, Panc-1 cells, treatment 24 h (Dau conjugates) or 6 h (PTX compounds), viability at 72 h, mean ± SE of two to three determinations, read-out: Panc-1 IC50): 170 ± 10 nM

CCCC(=O)NCCCC[C@H](NC(=O)[C@H](Cc1c[nH]c2ccccc12)NC(=O)[C@H](Cc1c[nH]cn1)NC(=O)[C@@H]1CCC(=O)N1)C(=O)N[C@@H](Cc1c[nH]cn1)C(=O)N[C@@H](CC(=O)O)C(=O)N[C@@H](Cc1c[nH]c2ccccc12)C(=O)N[C@@H](CCCCN)C(=O)N1CCC[C@H]1C(=O)NCC(N)=O [Peptide I, GnRH-III-[^4Lys(Bu)]]
IC50 [3]: 3.11 ± 0.76 nM | IC50 ([4]; human pituitary membranes, mean ± SE of two to three determinations, read-out: IC50 Pituitary, competitive inhibition of [125I][6D-Trp]-GnRH-I binding): 2.72 ± 0.95 nM

CCCC(=O)NCCCC[C@H](NC(=O)[C@H]1Cc2ccccc2CN1C(=O)[C@@H]1CCC(=O)N1)C(=O)N[C@@H](Cc1c[nH]cn1)C(=O)N[C@@H](CC(=O)O)C(=O)N[C@@H](Cc1c[nH]c2ccccc12)C(=O)N[C@@H](CCCCNC(=O)CCCC(=O)N[C@H](C(=O)N[C@@H](CCCNC(N)=O)C(=O)Nc1ccc(COC(=O)N[C@H]2C[C@H](O[C@H]3C[C@](O)(C(C)=O)Cc4c(O)c5c(c(O)c43)C(=O)c3c(OC)cccc3C5=O)O[C@@H](C)[C@H]2O)cc1)C(C)C)C(=O)N1CCC[C@H]1C(=O)NCC(N)=O [compound 11, GnRH-III-[2ΔHis-3D-Tic,8Lys(glutaryl-Val-Cit-PABC-Dau)]]
activity on Panc-1 cells lower than on A2780 [2]: more than 20 times | receptor binding affinity of 11 relative to corresponding Val-Ala conjugate 13 ([4]; Val-Cit vs Val-Ala): twice as high

CCCC(=O)NCCCC[C@H](NC(=O)[C@H]1Cc2ccccc2CN1C(=O)[C@@H]1CCC(=O)N1)C(=O)N[C@@H](Cc1c[nH]cn1)C(=O)N[C@@H](CC(=O)O)C(=O)N[C@@H](Cc1c[nH]c2ccccc12)C(=O)N[C@@H](CCCCNC(=O)CCCC(=O)N[C@H](C(=O)N[C@@H](C)C(=O)Nc1ccc(COC(=O)N[C@H]2C[C@H](O[C@H]3C[C@](O)(C(C)=O)Cc4c(O)c5c(c(O)c43)C(=O)c3c(OC)cccc3C5=O)O[C@@H](C)[C@H]2O)cc1)C(C)C)C(=O)N1CCC[C@H]1C(=O)NCC(N)=O [compound 13]
activity on Panc-1 cells lower than on A2780 [2]: more than 20 times

CCCC(=O)NCCCC[C@H](NC(=O)[C@H](Cc1c[nH]c2ccccc12)NC(=O)[C@H](Cc1c[nH]cn1)NC(=O)[C@@H]1CCC(=O)N1)C(=O)N[C@@H](Cc1c[nH]cn1)C(=O)N[C@@H](CC(=O)O)C(=O)N[C@@H](Cc1c[nH]c2ccccc12)C(=O)N[C@@H](CCCCNC(=O)CCCC(=O)N[C@H](C(=O)N[C@@H](CCCNC(N)=O)C(=O)Nc1ccc(COC(=O)N(C)CCN(C)C(=O)O[C@@H](C(=O)O[C@H]2C[C@@]3(O)[C@@H](OC(=O)c4ccccc4)[C@@H]4[C@]5(OC(C)=O)CO[C@@H]5C[C@H](O)[C@@]4(C)C(=O)[C@H](OC(C)=O)C(=C2C)C3(C)C)[C@@H](NC(=O)c2ccccc2)c2ccccc2)cc1)C(C)C)C(=O)N1CCC[C@H]1C(=O)NCC(N)=O [compound 14]
IC50 [3]: 10.7 ± 1.82 nM | IC50 [1, 6]: 670 ± 70 nM | IC50 [2, 7]: 5030 ± 1910 nM | detection of the diamine-PTX fragment ([5]; after 5 min of incubation): could be already detected | release of the free PTX [5]: could not be detected | IC50 [4]: 10.5 ± 2.01 nM

CCCC(=O)NCCCC[C@H](NC(=O)[C@H](Cc1c[nH]c2ccccc12)NC(=O)[C@H](Cc1c[nH]cn1)NC(=O)[C@@H]1CCC(=O)N1)C(=O)N[C@@H](Cc1c[nH]cn1)C(=O)N[C@@H](CC(=O)O)C(=O)N[C@@H](Cc1c[nH]c2ccccc12)C(=O)N[C@@H](CCCCNC(=O)CCCC(=O)N[C@H](C(=O)N[C@@H](C)C(=O)Nc1ccc(COC(=O)N(C)CCN(C)C(=O)O[C@@H](C(=O)O[C@H]2C[C@@]3(O)[C@@H](OC(=O)c4ccccc4)[C@@H]4[C@]5(OC(C)=O)CO[C@@H]5C[C@H](O)[C@@]4(C)C(=O)[C@H](OC(C)=O)C(=C2C)C3(C)C)[C@@H](NC(=O)c2ccccc2)c2ccccc2)cc1)C(C)C)C(=O)N1CCC[C@H]1C(=O)NCC(N)=O [compound 16]
IC50 [3]: 8.47 ± 1.06 nM | IC50 [1, 6]: 660 ± 180 nM | IC50 [2, 7]: 4890 ± 1080 nM | detection of the diamine-PTX fragment ([5]; after 5 min of incubation): could be already detected | release of the free PTX [5]: could not be detected | IC50 [4]: 9.86 ± 0.82 nM

CCCC(=O)NCCCC[C@H](NC(=O)[C@H](Cc1c[nH]c2ccccc12)NC(=O)[C@H](Cc1c[nH]cn1)NC(=O)[C@@H]1CCC(=O)N1)C(=O)N[C@@H](Cc1c[nH]cn1)C(=O)N[C@@H](CC(=O)O)C(=O)N[C@@H](Cc1c[nH]c2ccccc12)C(=O)N[C@@H](CCCCNC(=O)CCCC(=O)N(C)CCN(C)C(=O)O[C@@H](C(=O)O[C@H]1C[C@@]2(O)[C@@H](OC(=O)c3ccccc3)[C@@H]3[C@]4(OC(C)=O)CO[C@@H]4C[C@H](O)[C@@]3(C)C(=O)[C@H](OC(C)=O)C(=C1C)C2(C)C)[C@@H](NC(=O)c1ccccc1)c1ccccc1)C(=O)N1CCC[C@H]1C(=O)NCC(N)=O [compound 25, GnRH-III-[2His-3Trp,8Lys(glutaryl-diamine-PTX)]]
IC50 [1, 6]: 41500 ± 9830 nM | IC50 [2, 7]: > 100000 nM | detection of the diamine-PTX fragment ([5]; even after 24 h of incubation): could not be detected

bombesin [reference compound]
GnRH-R binding of the radiotracer affected [4]: unable to affect | displacement of radio-labelled triptorelin from GnRH-Rs [4]: not able to displace

somatostatin [reference compound]
GnRH-R binding of the radiotracer affected [4]: unable to affect | displacement of radio-labelled triptorelin from GnRH-Rs [4]: not able to displace
